64 compounds from a melting point compilation (Tetko et al.; mined from patent text by program, amines drawn as free bases though some values may be those of a salt) can be followed below.

Structures are written as SMILES.

As usually defined, the melting point is the temperature of the solid-liquid transition.

`O=C(O)CCc1conc1-c1ccc(-c2ccccc2)cc1` displayed a melting point of 169 to 170 °C.

Regarding `CCOC(=O)c1c(O)c2cc(F)cnc2n(Cc2ccc(OC)cc2)c1=O`, the melting point was 163 °C.

Compound `CC(=O)N(O)C(C)c1cccc(Nc2ccccc2C(=O)NN)c1Cl` (centres undefined) showed a melting point of 193 to 195 °C.

Turning to `Cc1nc2c3c(c(C(=O)NC4CC4)cc2n1C)CCC1(Cc2ccccc2C1)N3`, the melting point was in the range of 247 to 248 °C.

The compound `CCOC(=O)Cn1c(=O)c(C#N)c(N2CCN(C(=O)c3cccs3)CC2)c2cccnc21` came in with a melting point of 236 °C.

`O=C1CCC(n2cnc(-c3ccc(F)cc3)c2-c2ccnc(Nc3ccccc3)n2)CC1` had a melting point of 205 to 207 °C.

`CO[C@]12C[C@@H](CN3CCC(O)(c4ccc(Cl)c(C(F)(F)F)c4)CC3)CN(C)[C@@H]1Cc1c[nH]c3cccc2c13`: the melting point lay in the range of 143 to 146 °C.

With `CSc1ccc2c(c1)C(O)c1ccccc1C=C2` (centres undefined), the melting point lay in the range of 117 to 118 °C.

The compound `COc1ccc(CSCC(NC(=O)c2ccccc2)C(=O)NC(C)(C)c2ccccc2)cc1` (centres undefined) came in with a melting point of 189 °C.

The compound `OCc1cc2cc(OCc3ccccc3)ccc2[nH]1` gave a melting point of 106 to 107 °C.

Compound `CCCOc1cc2ccccc2c2c(=O)c(-c3ccc(OC)cc3)c[nH]c12` returned a melting point of 172 to 174 °C.

With `O=C1Nc2cccc(-c3cccc(NC(=O)c4cccc([N+](=O)[O-])c4)c3)c2/C1=C/c1ccc[nH]1`, the melting point lay in the range of 265 to 266 °C.

`NC(=O)N1C(=O)C(C(=O)c2sccc2F)c2cc(Cl)ccc21` (centres undefined) displayed a melting point of 235 to 240 °C.

Take `Cc1nc(C)c(I)nc1C`: the melting point was in the range of 59 to 63 °C.

Regarding `Cc1ccsc1C(=O)c1cccn1N1C(=O)c2ccccc2C1=O`, the melting point was 221 to 223 °C.

In the case of `Cc1ccc2c(c1)c(-c1ccc(F)cc1)c(C)n2C1CCN(C)CC1`, the melting point fell in the range of 110 to 112 °C.

The compound `CC1(C)CC(=O)C(C(=O)c2ccc(S(C)(=O)=O)cc2[N+](=O)[O-])C(=O)C1` registered a melting point of 156 to 158 °C.

In turn, `COC1(C)CCc2c(C)c(OCc3ccccc3)c(C)c(C)c2O1` (centres undefined) registered a melting point of 70 to 72.5 °C.

The compound `O=c1oc(-c2ccccc2)cc(O)c1SCCCCc1ccccc1` gave a melting point of 103 to 105 °C.

With `CCOC(=O)C1=NS(=O)(=O)c2ccccc21`, the melting point is 114 to 115 °C.

Compound `CC(C)c1nn(-c2ccc(C(F)(F)F)cn2)cc1CCCOc1nn(C)cc1CC(=O)O` yielded a melting point of 122 to 123 °C.

`Cc1ccccc1-c1cc2ncccc2c(=O)n1C` returned a melting point of 104 to 106 °C.

Compound `Cn1cccc1C1=CC(=O)c2ccccc2C1=O` gave a melting point of 95 to 96 °C.

Compound `Cn1cc(Oc2ccc(Cl)cc2)c(=O)c(-c2cccc(C(F)(F)F)c2)c1` displayed a melting point of 90 to 91 °C.

For `CC(=O)NC(Cl)C(Cl)(Cl)CCl` (centres undefined), the melting point was 70 to 72 °C.

Regarding `COC[C@H]1CN(c2coc3cc(C(=O)OC)ccc23)C(=O)O1`, the melting point turned out to be 116 °C.

Compound `CCC1(CC)CC(O)CC(C)(C)N1OC(C)c1ccccc1` (centres undefined) had a melting point of 84 to 86 °C.

`CC(=O)Nc1nccc2cc3cccnc3n12`: the melting point was 160 to 161 °C.

With `Cc1nc(NC(=O)Nc2ccc(N3CCN(C(=O)Nc4ccc(OCCO)cc4C(F)(F)F)CC3)cc2)sc1C`, the melting point was in the range of 166 to 167 °C.

As for `COc1ccc2c(Cc3c(Cl)cncc3Cl)nnc(CN3CCOCC3)c2c1`, the melting point lay within 203 to 206 °C.

With `CCOc1nc(-c2ccco2)c2ncn(Cc3ccc(OC)cc3)c2n1`, the melting point fell in the range of 137 to 138 °C.

For the compound `CC(=O)ON=C(N)c1cccc(C(=O)NCCCNC(=O)[C@@H]2CCCN2S(=O)(=O)c2ccc(Cl)c(COc3cccc4c(C)cc(C)nc34)c2Cl)c1`, the melting point lay in the range of 100 to 104 °C.

In the case of `CC(C)(C)C1CCc2oc(=O)c(-c3ccccc3)c(O)c2C1` (centres undefined), the melting point was 195 °C.

`CC(C)(C)N1C(=O)OC2(CCN(Cc3ccccc3)CC2)C1(C)O` (centres undefined) gave a melting point of 179 to 181 °C.

Consider `CC(C)c1[nH]c(Cl)c(C#N)c1SC#N`, for which the melting point amounted to 159 °C.

Regarding `CCOC(=O)CCC1=C(C#N)C(c2ccccc2Cl)c2c[nH]nc2N1` (centres undefined), the melting point fell in the range of 172 to 174 °C.

Take `CC(C)(C)NC(=O)[C@@H]1CSCN1`: the melting point fell in the range of 68 to 71 °C.

In the case of `CCSc1nc2nsc(N)c2s1`, the melting point is 131 to 134 °C.

`Cc1cccc(NC(=O)NC2N=C(c3ccccc3F)c3ccccc3N(Cc3cc4ccccc4o3)C2=O)c1` (racemic) came in with a melting point of 213 to 214 °C.

Regarding `COc1ccccc1-c1ccc2cnc(Nc3ccc(N4CCN(CC(N)=O)CC4)c(F)c3)nn12`, the melting point is 186 °C.

For `CON(C(=O)c1cn(C)nc1C(F)F)C(C)C1CC1c1ccc(Cl)cc1Cl` (centres undefined), the melting point lay in the range of 133 to 135 °C.

For the compound `O=C1NC(O)c2cc(Br)ccc21` (centres undefined), the melting point was in the range of 258 to 261 °C.

For `CC(C)N(C(=O)n1oc(=O)n(Cc2ccccc2)c1=O)c1ccc(F)cc1`, the melting point was in the range of 95 to 96 °C.

As for `CC(=O)NCC1CN(c2ccc(N3CC4CCCN(C(=O)CO)C4C3)c(F)c2)C(=O)O1` (centres undefined), the melting point lay in the range of 102 to 110 °C.

For the compound `CCN(CC)C(=O)c1cc(O)c(O)c([N+](=O)[O-])c1`, the melting point lay in the range of 145 to 146 °C.

For `Cn1cc(C(=O)Cl)c([N+](=O)[O-])n1`, the melting point is 68 to 70 °C.

The compound `Cc1cccc(-n2c(CF)nc3ccc(N)cc3c2=O)c1C` gave a melting point of 189 to 192 °C.

For the compound `COC(=O)C1=CCC(NC(C)=O)C1` (centres undefined), the melting point fell in the range of 72 to 74 °C.

`Cc1cc(-n2cnnn2)cc(I)c1N`: the melting point is 172 to 175 °C.

Compound `COc1ccc(-c2csc(Nc3cccnc3)n2)cc1OC` showed a melting point of 251 to 254 °C.

Turning to `NCCc1ncccc1C(N)=O`, the melting point was found to be 54 °C.

With `O=C(O)CC1=CSCSC1`, the melting point turned out to be 97 °C.

`CC(C)C(c1cncnc1C#N)N(C)C(=O)Cc1ccccc1` (centres undefined): the melting point is 80 to 81 °C.

`CCOCCn1c(C2CCN(CCc3ccc(C(C)(C)C)cc3)CC2)nc2ccccc21` displayed a melting point of 138 to 140 °C.

In turn, `CCOC(=O)c1ccc(C=C(C)C=O)o1` displayed a melting point of 83 °C.

Regarding `CCOc1ccc(C(=O)NCc2ccc3c(c2)C(=O)N(C2(C)CCC(=O)NC2=O)C3=O)cc1` (centres undefined), the melting point lay within 163 to 165 °C.

`CC(=O)N1CCN(C(=O)Cn2c(-c3ccc(Cl)cc3)nc3cccnc32)CC1`: the melting point was 217 to 219 °C.

For the compound `Cc1c(-c2ccccc2)c(N2CC[C@H](N(C)C)C2)c2oc(-c3ccccc3[N+](=O)[O-])nc2c1C#N`, the melting point is 139 to 142 °C.

The compound `O=[N+]([O-])c1cnn2c1-c1ccccc1NC2c1ccccc1` (centres undefined) came in with a melting point of 157 to 158 °C.

For `CNC(=O)Nc1snc(S(C)(=O)=O)c1C(N)=O`, the melting point was 227 to 228 °C.

The compound `COc1cc(Cc2cnc(N)nc2N)cc2c1OC(C)(C)C=C2Cl` showed a melting point of 221 to 222 °C.

As to `NS(=O)(=O)c1cccc(-c2cccc(-c3nc(-c4ccc(C(F)(F)F)cc4)cc(C(F)(F)F)n3)c2)c1`, the melting point stood at 267 °C.

Regarding `COc1ccc(C(=CC(=O)O)c2ccc(-c3ccccc3)cc2)cc1OC`, the melting point was in the range of 178 to 184 °C.

Compound `O=Cc1nc(C(Cl)Cl)cnc1N1C(=O)c2ccccc2C1=O` yielded a melting point of 145 to 146 °C.
